Measured values reported in US20210308196A1, “COMPOSITIONS AND METHODS TO PROMOTE HOST DEFENSE AND STIMULATE, EXPAND, AND/OR RESET T CELL REPERTOIRES” (EVOLVE BIOSYSTEMS, INC., priority 2018, published 2021).

Experiments:
[1] = test system: TLR2, TLR4, TNF and COX-2; test: qPCR of inflammatory markers in sloughed off intestinal epithelial cells; format: in vivo, human; settings: treatment group
Source text: Expression of inflammatory markers including Toll like receptor (TLR) 2 and TLR4, COX-2 and TNF in intestinal epithelial cells: Previous data has implemented TLR2 in controlling mucosal inflammation by regulating intestinal epithelial barrier function. Further, a significant TLR4-dependent increase in Cox-2 expression has been shown in intestinal epithelial cells post exposure to lipopolysaccharide. TNF-α, a cytokine that plays a key role in mucosal inflammation, is readily detectable at the expression and protein levels in children who have various intestinal pathologies.

[2] = Prevention and/or treatment of severe acute malnutrition (SAM) in infants; format: in vivo, human; settings: 28 days
[3] = test system: peanut extract allergy; test: Prevention of murine peanut allergy; format: in vivo, mouse
Source text: Germ-free mouse pups are weaned 3-4 weeks after birth and put on a polysaccharide-free diet that is enriched for Vitamin A. As soon as the mouse pups are weaned, they are gavaged with a dysbiotic (no Bifidobacterium sp. and high proteobacteria) human infant microbiome at Day 1 of the experiment. The mice are divided into 4 groups: control, control plus LNnT, B. infantis, and B. infantis plus LNnT. Mice are given the composition for 21 days. All Groups receive B. infantis or placebo every 3 days by gavage. The LNnT or placebo is added to the drinking water for 21 days. Mice receive intragastric gavage of peanut extract on weekly at 5 mg/mouse for sensitization and then 25 mg/mouse at week 5 for challenge with 10 μg of Cholera toxin to elicit anaphylaxis. Control animals receive intragastric gavage with vehicle only. Anaphylaxis symptoms are evaluated, and then mice are necropsied. Plasma samples are collected for evaluation of histamine and IgE concentrations. White blood cells are isolated for PBMC characterization and evaluation of regulatory T cell population expansion using flow cytometry specific for CD4, CD25, Foxp3, Helios, Neuropilin, CD8, CD44, CD62L, IFNgamma, IL-17, and B cell populations, including Bregs and plasma cells using the following markers: IgM, CD5, CD24, CD19, CD19, CD20, CD34, CD38, CD45R, CD78, CD80, and CD138.

[4] = test system: TNF; test: Fecal TNF expression; format: in vivo, human; settings: treatment group
[5] = test system: human colonic mucin glycans; test: Fecal glycome and colonic mucin-derived O-glycans (nano-HPLC-Chip-TOF MS); format: in vivo
Source text: A library of known mucin-specific O-glycans was compiled and used to query untargeted mass spectra of fecal samples.
Analysis of spectra obtained with nano-high performance liquid chromatography-chip/time-of flight mass spectrometry (nano-HPLC-Chip-TOF MS). […] Briefly, the HPLC system used was an Agilent 1200 series unit with a microfluidic chip, which was coupled to an Agilent 6220 series TOF mass spectrometer via chip cube interface. The capillary pump on the chromatography unit loaded the sample onto the 40-nL enrichment column at a flow rate of 4.0 μL/min with a 1-μL injection volume. A nano pump was used for analyte separation on the analytical column, which was […] and packed with porous graphitized carbon. Separation was accomplished using a binary gradient of aqueous solvent A (3% acetonitrile (ACN)/water (v/v) in 0.1% formic acid (FA)) and organic solvent B (90% ACN/water (v/v) in 0.1% FA) using a method developed for HMO separation. The sample was introduced into the TOF mass spectrometer via electrospray ionization, which was tuned and calibrated using a dual nebulizer electrospray source with calibrant ions ranging from m/z 118.086 to 2721.895, and data were collected in the positive mode. These untargeted spectra were reanalyzed in the present study.
Glycan data analysis. The untargeted mass spectra were collected (as above) and analyzed using Agilent MassHunter Work station Data Acquisition version B.02.01 on the nanoHPLC-chip/TOF (Frese et al 2017). The “Find Compounds by Molecular Feature” function of the software was used to identify mucin glycan species within 20 ppm of theoretical masses. Compound abundances were expressed as volume in ion counts that corresponded to absolute abundances of the compounds in each sample. 1HexNAc-1NeuAc, 1HexNAc-1Hex-NeuAc, 2HexNAc-1NeuAc, 2HexNAc-1Hex-1Fuc, 2HexNAc-1Hex-1NeuAc, 2HexNAc-1Hex-2Fuc, 3HexNAc-1Hex-1Fuc, 2HexNAc-1Hex-1Fuc-1NeuAc, 2HexNAc-1Hex-1Fuc-2NeuAc, 3HexNAc-1Hex-2NeuAc and 3HexNAc-1Hex-2Fuc-1NeuAc were monitored as they are discriminitively human colonic glycans. Robbe et al. (2004) Rapid Communications in Mass Spectrometry 18(4): 412-420.
Statistical analysis. Multiple t-tests were carried out with the Holm-Sidak correction in Graph Pad Prism 7 (GraphPad Software, La Jolla, Calif. USA). Pearson and Spearman correlational tests and principle component analyses were performed in R (v 3.4.2). Adonis test was carried out using a weighted UNIFRAC distance matrix (Lozupone et al 2011) in QIIME 1.9.1 (Caporaso et al 2010). […] The total oligosaccharide (OS) compositions of the samples were determined by the untargeted approach of nano-HPLC-Chip-TOF. The compounds were characterized using previously published libraries. Thomsson et al. (2002) Glycobiology 12(1): 1-14; Robbe et al. (2004) Rapid Communications in Mass Spectrometry 18(4): 412-420; Matamoros et al. (2013) Trends in Microbiology 21(4): 167-173; Karav et al. (2016) Applied and Environ. Micro. 82(12): 3622-3630. Among these compositions, free HMO (Frese et al. (2017) mSphere 2(6): e00501-e00517) and mucin OS were found in the infant fecal glycome. The degradation of human colonic mucin glycans by different gut microbiome profiles was determined as the difference between a B. infantis-dominated microbiome and microbiomes with more abundant mucolytic taxa, such as Bacteroidaceae. As target molecules, 1HexNAc-1NeuAc, 1HexNAc-1Hex-NeuAc, 2HexNAc-1NeuAc, 2HexNAc-1Hex-1Fuc, 2HexNAc-1Hex-1NeuAc, 2HexNAc-1 Hex-2Fuc, 3HexNAc-1Hex-1Fuc, 2HexNAc-1Hex-1Fuc-1NeuAc, 2HexNAc-1Hex-1Fuc-2NeuAc, 3HexNAc-1Hex-2NeuAc and 3HexNAc-1Hex-2Fuc-1NeuAc, were selected as typical human colonic mucin glycans, as shown by Robbe et al. (2004) Rapid Communications in Mass Spectrometry 18(4): 412-420.

Substance: Bifidobacterium longum subsp. infantis EVC001 [B. infantis EVC001]
- Expression of TLR2, TLR4, TNF and COX-2 [1]: significantly reduced
- Incidence of symptoms of acute malnutrition [2]: lower
- TReg cells [2]: expansion
- Weight gain [2]: better
- B cell and plasma cell profiles, vaccine responses ([2]; children with SAM / hospitalized infants): improved
- Inflammatory responses to the food antigen ([3]; compared to control mice): reduce
- Anaphylaxis ([3]; peanut extract challenge with Cholera toxin): prevent
- Fecal TNF expression [4]: significantly reduced
- Number of total OS structures (including isomers and anomers) ([5]; infant feces, FIG. 2A): 360.44±102.52
- Number of colonic mucin-derived O-glycan structures ([5]; infant feces, FIG. 2B): 6.33 (±2.24)
- Relative abundance of colonic mucin-derived O-glycans, number of structures ([5]; infant feces, FIG. 2C): 1.78%±0.385
- Colonic mucin-derived O-glycans, proportion of the total OS profile ([5]; infant feces, FIG. 2D): 1.68±1.12%
- Glycan 1_0_0_1 (1HexNAc-1NeuAc) Log10 Volume EVC001-fed [Mean (+/− SD)] ([5]; infant feces, neutral mass 512): 5.39
- Glycan 1_1_0_1 (1HexNAc-1Hex-1NeuAc) Log10 Volume EVC001-fed [Mean (+/− SD)] ([5]; infant feces, neutral mass 675): 4.01
- Glycan 2_0_0_1 (2HexNAc-1NeuAc) Log10 Volume EVC001-fed [Mean (+/− SD)] ([5]; infant feces, neutral mass 716): 0
- Glycan 2_1_1_0 (2HexNAc-1Hex-1Fuc) Log10 Volume EVC001-fed [Mean (+/− SD)] ([5]; infant feces, neutral mass 735): 0
- Glycan 2_1_0_1 (2HexNAc-1Hex-1NeuAc) Log10 Volume EVC001-fed [Mean (+/− SD)] ([5]; infant feces, neutral mass 878): 5.56
- Glycan 2_1_2_0 (2HexNAc-1Hex-2Fuc) Log10 Volume EVC001-fed [Mean (+/− SD)] ([5]; infant feces, neutral mass 879): 5.48
- Glycan 3_1_1_0 (3HexNAc-1Hex-1Fuc) Log10 Volume EVC001-fed [Mean (+/− SD)] ([5]; infant feces, neutral mass 936): 5.43
- Glycan 2_1_1_1 (2HexNAc-1Hex-1Fuc-1NeuAc) Log10 Volume EVC001-fed [Mean (+/− SD)] ([5]; infant feces, neutral mass 1024): 5.38
- Glycan 2_1_1_2 (2HexNAc-1Hex-1Fuc-2NeuAc) Log10 Volume EVC001-fed [Mean (+/− SD)] ([5]; infant feces, neutral mass 1315): 6.68
- Glycan 3_1_0_2 (3HexNAc-1Hex-2NeuAc) Log10 Volume EVC001-fed [Mean (+/− SD)] ([5]; infant feces, neutral mass 1372): 5.47
- Glycan 3_1_2_1 (3HexNAc-1Hex-2Fuc-1NeuAc) Log10 Volume EVC001-fed [Mean (+/− SD)] ([5]; infant feces, neutral mass 1373): 6.12
- Mucin degradation ([5]; supplemented infants compared to the control group): significantly less
